These results are taken from patent US8853230B2, “Inhibitors of JAK” (Portola Pharmaceuticals, Inc., priority 2009, dated 2014).

Assay [1] concerns the target T1, JAK1 (Homo sapiens, UniProt P23458).
T1 construct: 5 μl of catalytic domain recombinant Kinase enzyme+Tyr peptide substrate (Invitrogen, Calif.); purchased Invitrogen
As to the kind of experiment: Z'-LYTE kinase assay, JAK1 tyrosine phosphorylation activity. It counts as biochemical. As to conditions: read-out: JAK 1 IC50. In a few lines: (§1)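 Catalytic-domain recombinant enzymes phosphorylate a coumarin/fluorescein-labelled Tyr6 peptide for 1 h at room temperature in the presence of ATP and compound (1% DMSO). Development Reagent then cleaves non-phosphorylated peptide over 1 h, and emission ratio 445/520 nm (ex 400 nm) gives percent phosphorylation; IC50 by 4-parameter logistic model.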

Assay [2] has as its target T2, JAK2 (Homo sapiens, UniProt O60674).
T2 construct: 5 μl of catalytic domain recombinant Kinase enzyme+Tyr peptide substrate (Invitrogen, Calif.); purchased Invitrogen
As to the kind of experiment: Z'-LYTE kinase assay, JAK2 tyrosine phosphorylation activity. Format: biochemical. In a few lines: as §1

Assay [3] addresses T3, JAK3 (Homo sapiens, UniProt P52333).
T3 construct: 5 μl of catalytic domain recombinant Kinase enzyme+Tyr peptide substrate (Invitrogen, Calif.); purchased Invitrogen
As to the kind of experiment: Z'-LYTE kinase assay, JAK3 tyrosine phosphorylation activity. Format: biochemical. The method in brief: as §1

Assay [4] deals with T4, TYK2 (Homo sapiens, UniProt P29597).
T4 construct: 5 μl of catalytic domain recombinant Kinase enzyme+Tyr peptide substrate (Invitrogen, Calif.); purchased Invitrogen
T4 sequence (P29597 897-1176 limits assumed): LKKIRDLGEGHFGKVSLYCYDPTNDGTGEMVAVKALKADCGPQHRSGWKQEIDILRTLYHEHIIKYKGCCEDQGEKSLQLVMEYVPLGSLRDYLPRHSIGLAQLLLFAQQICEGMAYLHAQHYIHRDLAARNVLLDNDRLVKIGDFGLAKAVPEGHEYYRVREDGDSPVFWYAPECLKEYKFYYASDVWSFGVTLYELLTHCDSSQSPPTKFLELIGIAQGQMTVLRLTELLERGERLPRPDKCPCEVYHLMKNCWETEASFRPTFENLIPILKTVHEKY
As to the kind of experiment: Z'-LYTE kinase assay, TYK2 tyrosine phosphorylation activity. Format: biochemical. In a few lines:
as §1

The subject of assay [5] is IL4-induced phospho STAT6 formation in Ramos B lymphocytes. The assay can be described thus: Inhibition of IL4-induced phospho STAT6 formation in Ramos B lymphocytes (flow cytometry). As to conditions: Homo sapiens; for inhibition at 0.2 µM: 200 nM compound, read-out: % Inhibition of IL-4 Induced STAT6 Phosphorylation 200 nM; for inhibition at 1 µM: 1 μM compound, read-out: % Inhibition of IL-4 Induced STAT6 Phosphorylation 1 μM. It counts as cell-based, human. An excerpt: Similar types of assays can be used to assess JAK inhibitory activity and to determine the degree of selectivity of the particular compound as compared to syk. One means of assaying for such inhibition is detection of the effect of the compounds of the present invention on the upregulation of downstream gene products. In the Ramos/IL4 assay, B-cells are stimulated with the cytokine Interleukin-4 (IL-4) leading to the activation of the JAK/Stat pathway through phosphorylation of the JAK family kinases, JAK1 and JAK3, which in turn phosphorylate and activate the transcription factor Stat-6. […] To study the effect of inhibitors (e.g., the 2,4-substituted pyrimindinediamine compounds described herein) on the JAK1 and JAK3, human Ramos B-cells are stimulated with human IL-4. 10′ post-stimulation, cells are subjected to intracellular flow cytometry to measure the extent of STAT-6 phosphorylation. 20 to 24 hours post-stimulation, cells are stained for upregulation of CD23 and analyzed using flow cytometry.
Inhibition of IL4-induced phospho STAT6 formation was measured by pre-incubating 0.5 million Ramos B lymphocytes (ATCC) with 5 μl compound or DMSO vehicle for 1 hour at 37° C./5% CO2. Cells were activated by addition of 1 ng/ml [f]IL4 (R & D Research Systems) for 10 min at 37° C./5% CO2 and then fixed by addition of 1.6% [f]PFA (Electron Microscopy Services). Following a PBS wash step and permaeabilization with 100% methanol, cells were incubated with ALEXA-conjugated anti-phosphoSTAT6 (Y641) antibody (BD 612600). The extent of cell associated-fluorescence was determined by flow cytomentry and data expressed as mean fluorescent intensity. The extent of inhibition of the IL4-induced signal was then calculated.

T1 sequence (P23458 875-1153 limits assumed): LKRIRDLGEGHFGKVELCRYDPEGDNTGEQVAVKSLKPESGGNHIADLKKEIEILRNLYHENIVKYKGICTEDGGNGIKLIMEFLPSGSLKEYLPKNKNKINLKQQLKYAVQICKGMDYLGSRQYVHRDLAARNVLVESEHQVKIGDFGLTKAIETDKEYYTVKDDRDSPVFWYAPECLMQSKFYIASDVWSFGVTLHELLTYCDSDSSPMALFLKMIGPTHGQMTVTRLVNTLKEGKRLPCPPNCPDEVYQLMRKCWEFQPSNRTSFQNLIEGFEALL
T2 sequence (O60674 849-1124 limits assumed): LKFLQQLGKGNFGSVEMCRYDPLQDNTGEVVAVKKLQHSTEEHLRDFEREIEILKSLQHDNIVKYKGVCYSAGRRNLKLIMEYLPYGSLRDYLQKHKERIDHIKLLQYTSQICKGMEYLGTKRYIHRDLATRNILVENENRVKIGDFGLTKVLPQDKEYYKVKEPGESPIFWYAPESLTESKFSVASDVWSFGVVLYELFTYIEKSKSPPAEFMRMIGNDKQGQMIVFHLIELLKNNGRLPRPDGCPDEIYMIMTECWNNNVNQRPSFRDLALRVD
T3 sequence (P52333 822-1111 limits assumed): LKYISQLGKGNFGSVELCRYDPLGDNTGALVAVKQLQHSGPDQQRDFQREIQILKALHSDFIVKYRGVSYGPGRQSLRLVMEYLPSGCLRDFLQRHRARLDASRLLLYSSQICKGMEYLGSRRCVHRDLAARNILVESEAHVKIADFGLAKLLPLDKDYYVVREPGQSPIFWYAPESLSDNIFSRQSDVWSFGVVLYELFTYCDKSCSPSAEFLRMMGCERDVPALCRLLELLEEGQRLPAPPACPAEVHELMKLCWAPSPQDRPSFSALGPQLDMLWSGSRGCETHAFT

Turning to `CNC(=O)Nc1cc(Nc2ncc(C(N)=O)c(NCc3cccc(Cl)c3)n2)ccc1Cl` [Example 165, 2-(4-chloro-3-(3-methylureido)phenylamino)-4-(3-chlorobenzylamino)pyrimidine-5-carboxamide], the IC50 in assay [1] is above 1 µM; in assay [2], 0.1 to 1 µM; in assay [3], 0.01 to 0.1 µM; in assay [4], above 1 µM. Besides, the inhibition at 0.2 µM in assay [5] was determined as 57.3%. For the same compound, in assay [5], the inhibition at 1 µM was found to be 89.7%.

With `CC(=O)Nc1cccc(Nc2ncc(C(N)=O)c(NCc3ccccc3F)n2)c1` [Example 100, 2-(3-acetamidophenylamino)-4-(2-fluorobenzylamino)pyrimidine-5-carboxamide], the IC50 in assay [1] was in the range of 0.01 to 0.1 µM; in assay [2] it was 0.01 to 0.1 µM; in assay [3] it was 0.001 to 0.01 µM; in assay [4] it was 0.001 to 0.01 µM. Besides, the inhibition at 0.2 µM in assay [5] came to 43.5%. Moreover, the inhibition at 1 µM in assay [5] was determined as 95.3%.

In the case of `CCNC(=O)Nc1cc(Nc2ncc(C(N)=O)c(NCc3ccccc3)n2)ccc1Cl` [Example 153], the IC50 in assay [1] was in the range of 0.1 to 1 µM; in assay [2], 0.1 to 1 µM; in assay [3], 0.01 to 0.1 µM; in assay [4], 0.01 to 0.1 µM. Further, in assay [5], the inhibition at 0.2 µM is 22.3%. The inhibition at 1 µM in assay [5] came out at 51.7%.

On to `C[C@@H]1CCCN1C(=O)Nc1cccc(Nc2ncc(C(N)=O)c(NCc3ccccc3)n2)c1` [Example 146, (R)-4-(benzylamino)-2-(3-(2-methylpyrrolidine-1-carboxamido)phenylamino)pyrimidine-5-carboxamide], for which the IC50 was 0.01 to 0.1 µM in assay [1], 0.01 to 0.1 µM in assay [2], 0.001 to 0.01 µM in assay [3] and 0.001 to 0.01 µM in assay [4]. In addition, the inhibition at 0.2 µM in assay [5] was 40.7%. In addition, the inhibition at 1 µM in assay [5] worked out at 82%.

In the case of `C[C@@H](Nc1nc(Nc2cccc(NC(=O)N3CCC[C@@H]3C)c2)ncc1C(N)=O)c1ccccc1` [Example 137, 2-(3-((S)-2-methylpyrrolidine-1-carboxamido)phenylamino)-4-((R)-1-phenylethylamino)pyrimidine-5-carboxamide], the IC50 in assay [1] is 0.1 to 1 µM; in assay [2], 0.01 to 0.1 µM; in assay [3] it was 0.001 to 0.01 µM; in assay [4], 0.01 to 0.1 µM. Further, the inhibition at 0.2 µM in assay [5] was 14.7%. Also, the inhibition at 1 µM in assay [5] worked out at 57.3%.

Consider `CNC(=O)Nc1cccc(Nc2ncc(C(N)=O)c(NCc3ccccc3F)n2)c1` [Example 181, 4-(2-fluorobenzylamino)-2-(3-(3-methylureido)phenylamino)pyrimidine-5-carboxamide], for which the IC50 in assay [1] was 0.01 to 0.1 µM; in assay [2], 0.01 to 0.1 µM; in assay [3], 0.001 to 0.01 µM; in assay [4], 0.001 to 0.01 µM. In addition, the inhibition at 0.2 µM in assay [5] is 23.7%. In addition, in assay [5], the inhibition at 1 µM turned out to be 38.7%.

Turning to `C[C@H]1CCCN1C(=O)Nc1cccc(Nc2ncc(C(N)=O)c(NCc3ccccc3)n2)c1` [Example 139, (S)-4-(benzylamino)-2-(3-(2-methylpyrrolidine-1-carboxamido)phenylamino)pyrimidine-5-carboxamide], the half-inhibitory concentration (IC50) in assay [1] was 0.01 to 0.1 µM; in assay [2] it was 0.01 to 0.1 µM; in assay [3], 0.001 to 0.01 µM; in assay [4], 0.001 to 0.01 µM. The inhibition at 0.2 µM in assay [5] is 25.3%. For the same compound, the inhibition at 1 µM in assay [5] is 74.3%.

Turning to `COCC(=O)Nc1cc(Nc2ncc(C(N)=O)c(NCc3ccccc3)n2)ccc1Cl` [Example 106, 4-(benzylamino)-2-(4-chloro-3-(2-methoxyacetamido)phenylamino)pyrimidine-5-carboxamide], the half-maximal inhibitory concentration (IC50) lay in the range of 0.1 to 1 µM in assay [1], 0.1 to 1 µM in assay [2], 0.01 to 0.1 µM in assay [3] and 0.01 to 0.1 µM in assay [4]. In addition, the inhibition at 0.2 µM in assay [5] was found to be 16.8%. The inhibition at 1 µM in assay [5] was 27.8%.

`CNC(=O)Nc1cc(Nc2ncc(C(N)=O)c(N[C@H](C)c3ccccc3)n2)ccc1Cl` [Example 132, (R)-2-(4-chloro-3-(3-methylureido)phenylamino)-4-(1-phenylethylamino)pyrimidine-5-carboxamide]: the IC50 was 0.1 to 1 µM in assay [1], 0.1 to 1 µM in assay [2], 0.01 to 0.1 µM in assay [3] and 0.1 to 1 µM in assay [4]. For the same compound, the inhibition at 0.2 µM in assay [5] turned out to be 7.5%. The inhibition at 1 µM in assay [5] turned out to be 53.7%.

Turning to `NC(=O)c1cnc(Nc2cccc(NC(=O)N3CCCCC3)c2)nc1NCc1ccccc1` [Example 218, 4-(benzylamino)-2-(3-(piperidine-1-carboxamido)phenylamino)pyrimidine-5-carboxamide], the half-inhibitory concentration (IC50) in assay [1] was 0.01 to 0.1 µM; in assay [2], 0.01 to 0.1 µM; in assay [3] it was 0.001 to 0.01 µM; in assay [4], 0.001 to 0.01 µM. Moreover, the inhibition at 0.2 µM in assay [5] was 28.7%. Moreover, the inhibition at 1 µM in assay [5] turned out to be 76%.

For `CC(=O)Nc1cccc(Nc2cc(NCc3ccccc3)c(C(N)=O)cn2)c1` [Example 213, 6-(3-acetamidophenylamino)-4-(benzylamino)nicotinamide], the IC50 in assay [1] lay in the range of 0.1 to 1 µM; in assay [2] it was 0.1 to 1 µM; in assay [3], 0.01 to 0.1 µM; in assay [4] it was 0.1 to 1 µM. The inhibition at 0.2 µM in assay [5] was found to be 11.3%. Also, in assay [5], the inhibition at 1 µM was 35.3%.

Regarding `C[C@@H](Nc1nc(Nc2ccc(Cl)c(NC(=O)N(C)C)c2)ncc1C(N)=O)c1ccccc1` [Example 195, (R)-2-(4-chloro-3-(3,3-dimethylureido)phenylamino)-4-(1-phenylethylamino)pyrimidine-5-carboxamide], the IC50 in assay [1] is 0.1 to 1 µM; in assay [2] it was 0.01 to 0.1 µM; in assay [3], 0.001 to 0.01 µM; in assay [4] it was 0.01 to 0.1 µM. Moreover, in assay [5], the inhibition at 0.2 µM was 3.3%. In addition, the inhibition at 1 µM in assay [5] came to 27.3%.

Consider `CNC(=O)Nc1cc(Nc2ncc(C(N)=O)c(NCc3ccccc3F)n2)ccc1Cl` [Example 169, 2-(4-chloro-3-(3-methylureido)phenylamino)-4-(2-fluorobenzylamino)pyrimidine-5-carboxamide], for which the IC50 in assay [1] lay in the range of 0.1 to 1 µM; in assay [2] it was 0.1 to 1 µM; in assay [3] it was 0.001 to 0.01 µM; in assay [4] it was 0.01 to 0.1 µM. Further, in assay [5], the inhibition at 0.2 µM turned out to be 3.3%. Further, in assay [5], the inhibition at 1 µM stood at 16.7%.

Turning to `C[C@@H](Nc1nc(Nc2ccc(Cl)c(NC(=O)N3CCCC3)c2)ncc1C(N)=O)c1ccccc1` [Example 221, (R)-2-(4-chloro-3-(pyrrolidine-1-carboxamido)phenylamino)-4-(1-phenylethylamino)pyrimidine-5-carboxamide], the IC50 is above 1 µM in assay [1], 0.1 to 1 µM in assay [2], 0.01 to 0.1 µM in assay [3] and 0.1 to 1 µM in assay [4]. In addition, the inhibition at 0.2 µM in assay [5] was determined as 2.3%. For the same compound, the inhibition at 1 µM in assay [5] worked out at 6.3%.

With `COC[C@H]1CCCN1C(=O)Nc1cccc(Nc2ncc(C(N)=O)c(NCc3ccccc3)n2)c1` [Example 147, (R)-4-(benzylamino)-2-(3-(2-(methoxymethyl)pyrrolidine-1-carboxamido)phenylamino)pyrimidine-5-carboxamide], the IC50 was 0.01 to 0.1 µM in assay [1], 0.01 to 0.1 µM in assay [2], 0.001 to 0.01 µM in assay [3] and 0.001 to 0.01 µM in assay [4]. The inhibition at 0.2 µM in assay [5] was 28.7%. Also, the inhibition at 1 µM in assay [5] was determined as 82%.
